Test results reported in ChEMBL document CHEMBL3526091, “Pharmacokinetics, metabolism, and excretion of the glycogen synthase kinase-3 inhibitor LY2090314 in rats, dogs, and humans: a case study in rapid clearance by extensive metabolism with low circulating metabolite exposure” (Drug Metab Dispos, 2013).

Key:
Conditions in all cases: in vivo
[1] = Drug recovery in po dosed dog urine; assay type: ADME, organism-based, Canis lupus familiaris; design: dosed compound name Ruboxistaurin
[2] = Drug recovery in po dosed human urine; assay type: ADME, organism-based; design: dosed compound name Ruboxistaurin
[3] = Drug recovery in po dosed human feces; assay type: ADME, organism-based; design: dosed compound name Ruboxistaurin
[4] = Drug recovery in po dosed rat feces; assay type: ADME, organism-based; design: dosed compound name Ruboxistaurin
[5] = Drug recovery in po dosed dog feces; assay type: ADME, organism-based, Canis lupus familiaris; design: dosed compound name Ruboxistaurin
[6] = Drug recovery in po dosed rat urine; assay type: ADME, organism-based; design: dosed compound name Ruboxistaurin
[7] = Drug recovery in po dosed mouse urine; assay type: ADME, organism-based; design: dosed compound name Ruboxistaurin
[8] = Drug recovery in po dosed rat bile; assay type: ADME, organism-based; design: dosed compound name Ruboxistaurin
[9] = Drug recovery in po dosed mouse feces; assay type: ADME, organism-based; design: dosed compound name Ruboxistaurin
[10] = system: Plasma; test: Drug recovery in beagle dog plasma assessed as radiochemical peak area treated with 5 mg/kg, iv LY2090314 for 30 mins after 0.5 hrs by radio analysis; assay type: ADME, organism-based, Canis lupus familiaris; design: dose 5 mg/kg, dosed compound name [14C]LY2090314, route intravenous
[11] = Drug recovery in bile duct-cannulated Sprague-Dawley rat assessed as radioactivity in bile during 0 to 12 hrs treated with 5 mg/kg, iv LY2090314 for 30 mins; assay type: ADME, organism-based; design: dose 5 mg/kg, dosed compound name [14C]LY2090314, route intravenous
[12] = system: Plasma; test: Drug recovery in beagle dog plasma assessed as radiochemical peak area treated with 5 mg/kg, iv LY2090314 for 30 mins after 2 hrs by radio analysis; assay type: ADME, organism-based, Canis lupus familiaris; design: dose 5 mg/kg, dosed compound name [14C]LY2090314, route intravenous
[13] = Drug recovery in bile duct-intact beagle dog assessed as radioactivity in feces during 0 to 48 hrs treated with 5 mg/kg, iv LY2090314 for 30 mins; assay type: ADME, organism-based, Canis lupus familiaris; design: dose 5 mg/kg, dosed compound name [14C]LY2090314, route intravenous

Question: Which Radiolabel recovery [1] does the source give for `CN(C)C[C@@H]1CCn2cc(c3ccccc32)C2=C(C(=O)NC2=O)c2cn(c3ccccc23)CCO1` [RUBOXISTAURIN] here?
Answer: Its Radiolabel recovery is “<= 4%”.

Question: And the Radiolabel recovery [2]?
Answer: The Radiolabel recovery was “<= 4%”.

Question: What about the Radiolabel recovery [3] of the same compound?
Answer: Its Radiolabel recovery is 83%.

Question: What about the Radiolabel recovery [4] of the same compound?
Answer: The Radiolabel recovery was 83%.

Question: And the Radiolabel recovery [5]?
Answer: The Radiolabel recovery was 83%.

Question: What about the Radiolabel recovery [6] of the same compound?
Answer: Its Radiolabel recovery is “<= 4%”.

Question: And the Radiolabel recovery [7]?
Answer: Its Radiolabel recovery is “<= 4%”.

Question: And the Radiolabel recovery [8]?
Answer: Its Radiolabel recovery is 59%.

Question: What about the Radiolabel recovery [9] of the same compound?
Answer: Its Radiolabel recovery is 83%.

Question: For `NC(=O)N1CCn2cc(C3=C(c4cnc5ccccn45)C(=O)NC3=O)c3cc(F)cc(c32)C1`, which Compound recovery [10] is on record?
Answer: The Compound recovery was 0.1%.

Question: What about the Compound recovery [11] of the same compound?
Answer: The Compound recovery was 4.15%.

Question: What about the Compound recovery [12] of the same compound?
Answer: The Compound recovery was 0%.

Question: For `O=C(O)CCNC(=O)N1CCn2cc(C3=C(c4cnc5ccccn45)C(=O)NC3=O)c3cc(F)cc(c32)C1`, which Compound recovery [11] is on record?
Answer: The Compound recovery was 0%.

Question: With `O=C(CCNC(=O)N1CCn2cc(C3=C(c4cnc5ccccn45)C(=O)NC3=O)c3cc(F)cc(c32)C1)NCCS(=O)(=O)O` as the compound, how does the Compound recovery [11] read?
Answer: The Compound recovery was 6.76%.

Question: What does the source list for `O=C1NC(=O)C(c2c[n+](O[C@@H]3O[C@H](C(=O)O)[C@@H](O)[C@H](O)[C@H]3O)c3ccccn23)=C1c1cn2c3c(cc(F)cc13)CN(C(=O)N1CCCCC1)CC2`?
Answer: Compound recovery [10]: 12.66%; Compound recovery [12]: 18.81%; Compound recovery [13]: 5.42%
